Experimental data reported in patent US9428519B2, “Acylated derivative of homoharringtonine, preparation method therefor, and application thereof” (HANGZHOU BENSHENG PHARMACEUTICAL CO., LTD., priority 2011, dated 2016).
Entries after “also recorded” stand apart in the source; their conditions may differ.

How the values were obtained:
Type in all cases: in vivo
[1] = test system: Kasumi-1 transplanted tumor of leukemia; test: Inhibition of transplanted tumor of leukemia in NOD/SCID mice; conditions: for Mass of tumor / Tumor Inhibition rate (%): Kasumi-1 in NOD/SCID mice, three times a day, 10 days, Day 31
Description: Leukemia cell lines: Kasumi-1 (acute myeloid leukemia M2 type, AML-M2)
(§1) Animal: NOD/SCID mice (multiple immunodeficiency mice), 8 weeks, female, purchased from Shanghai Laboratory Animal Center of Chinese Academy of Sciences, China.
(§2) BS-HH-002, wherein BS-HH-002-0.1 indicates a dosage of 0.1 mg/kg each time, and BS-HH-002-0.3 indicates a dosage of 0.3 mg/kg each time.
(§3) Under sterile conditions, the above tumor cells in the logarithmic growth phase are collected and injected in an amount of 5×10^7/0.2 ml/mice (cell viability>95%) by subcutaneous injection into the right subaxillary of NOD/SCID mice, thus establishing an NOD/SCID mice model bearing transplanted tumor of leukemia. The mice are administered on the third day after the inoculation, wherein the experimental groups are intragastrically administered in an experimentally designed amount and the negative control group is intragastrically administered with sterile water. Each mouse is intragastrically administered three times a day in 0.4 ml each time, at 8:00, 14:00 and 20:00 with 6-hour intervals, and is successively administered for 10 days. The day before administration is Day 0 and the weight and tumor size are determined approximately every 5 days to produce a dynamic plot on weight and tumor growth. On Day 31, the mice are dissected and the tumors are taken out and weighed. The tumor inhibition rate (%) after the application of medicament is determined based on the tumor inhibition rate of the control group being zero.
(§4) The values determined are presented as mean±standard error (M±SD). The experimental data for each group are analyzed by the One-way ANOVA method of SPSS 18.0 Statistical Software, and p<0.05 is deemed as having statistically significant difference.

[2] = Body weight and toxicity in tumor-bearing NOD/SCID mice; conditions: for Weight (g) Final / Weight (g) Initial: three times a day, 10 days; for Weight (g) Initial: initial (Day 0)
Description: as §1, §2, §3, §4

[3] = test system: MGC-803 transplanted tumor of gastric cancer; test: Inhibition of transplanted tumor of gastric cancer in BALB/c-nu nude mice; conditions: for Mass of tumor / Tumor Inhibition rate (%): MGC-803 in BALB/c-nu nude mice, 10 days, Day 27
Description: Gastric cancer cell lines: MGC-803
(§5) Animal: BALB/c-nu nude mice, 8 weeks, female, purchased from Shanghai Laboratory Animal Center of Chinese Academy of Sciences, China.
(§6) BS-HH-002, wherein BS-HH-002-0.1 indicates a dosage of 0.1 mg/kg each time, BS-HH-002-0.3 indicates a dosage of 0.3 mg/kg each time, BS-HH-002-0.5 indicates a dosage of 0.5 mg/kg each time, and BS-HH-002-1.0 indicates a dosage of 1.0 mg/kg each time.
(§7) Under sterile conditions, the above tumor cells in logarithmic growth phase are collected and injected in an amount of 2×10^7/0.2 ml/nude mice (cell viability>95%) into the right subaxillary of the nude mice by subcutaneous injection, thus establishing a BALB/c-nu nude mice model bearing transplanted tumor of gastric cancer. The mice are administered on the third day after the inoculation, wherein the experimental groups are intragastrically administered in an experimentally designed amount, and the negative control group is intragastrically administered with sterile water. Administration takes place at 8:00 for one time a day, at 8:00 and 14:00 for twice a day, and at 8:00, 14:00 and 20:00 with 6-hour intervals for three times day. The administrations are successive for 10 days. The day before administration is Day 0 and the weight and tumor size are determined approximately every 5 days to produce a plot on weight and tumor growth. On Day 27, the mice are dissected and the tumors are taken out and weighed. Based on a tumor inhibition rate of zero for the control group, the tumor inhibition rate (%) after the effect of the medicament is calculated.
as §4

[4] = Body weight and toxicity in tumor-bearing BALB/c-nu nude mice; conditions: for Weight (g) Final / Weight (g) Initial: 10 days
Description: as §5, §6, §7, §4

[5] = 0.1 mg/kg/time, 1 time/day intragastric
[6] = 0.1 mg/kg/time, 2 times/day intragastric
[7] = 0.1 mg/kg/time, 3 times/day intragastric
[8] = 0.3 mg/kg/time, 1 time/day intragastric
[9] = 0.5 mg/kg/time, 1 time/day intragastric
[10] = 0.5 mg/kg/time, 2 times/day intragastric
[11] = 0.5 mg/kg/time, 3 times/day intragastric
[12] = 1.0 mg/kg/time, 1 time/day intragastric
[13] = 1.0 mg/kg/time, 3 times/day intragastric

COC(=O)C[C@](O)(CCCC(C)(C)OC(C)=O)C(=O)O[C@@H]1C(OC)=C[C@]23CCCN2CCc2cc4c(cc2[C@H]13)OCO4 [BS-HH-002, 6-acetylhomoharringtonine]
Mass of tumor ([1]; 0.1 mg/kg/time intragastric): 1.67 ± 0.36 g | Tumor Inhibition rate (%) ([1]; 0.1 mg/kg/time intragastric): 43.31% | Mass of tumor ([1]; 0.3 mg/kg/time intragastric): 1.60 ± 0.75 g | Tumor Inhibition rate (%) ([1]; 0.3 mg/kg/time intragastric): 45.74% | tumor inhibition effect on transplanted tumor of leukemia ([1]; NOD/SCID mice, FIG. 5 tumor growth curve): remarkable tumor inhibition effect | effect on weight of the transplanted tumor of leukemia ([1]; NOD/SCID mice, FIG. 6): substantially reduced | inhibition rate of transplanted tumor of leukemia ([1]; NOD/SCID mice, dosage of both 0.1 and 0.3 mg/kg): over 40% | Weight (g) Final ([2]; 0.1 mg/kg/time intragastric): 26.7 ± 1.92 g | Weight (g) Initial ([2]; 0.1 mg/kg/time intragastric): 21.48 ± 0.05 g | Weight (g) Final ([2]; 0.3 mg/kg/time intragastric): 27.45 ± 2.48 g | Weight (g) Initial ([2]; 0.3 mg/kg/time intragastric): 22.45 ± 0.13 g | toxic or side effect ([2]; 0.1 and 0.3 mg/kg each time): does not have any obvious toxic or side effect; also recorded: does not demonstrate an obvious toxicity | impact on animal weight ([2]; initial vs final weight): does not have substantial impact on animal weight | tumor inhibition rate on gastric cancer ([3]; BALB/c-nu nude mice, all dosing regimes 0.1-1.0 mg/kg): more than 40% | Mass of tumor [3, 5]: 0.40 ± 0.18 g | Tumor Inhibition rate (%) [3, 5]: 48.97% | Mass of tumor [3, 6]: 0.46 ± 0.11 g | Tumor Inhibition rate (%) [3, 6]: 40.90% | Mass of tumor [3, 7]: 0.41 ± 0.09 g | Tumor Inhibition rate (%) [3, 7]: 48.14% | Mass of tumor [3, 8]: 0.38 ± 0.13 g | Tumor Inhibition rate (%) [3, 8]: 51.76% | Mass of tumor [3, 9]: 0.44 ± 0.13 g | Tumor Inhibition rate (%) [3, 9]: 43.81% | Mass of tumor [3, 10]: 0.44 ± 0.18 g | Tumor Inhibition rate (%) [3, 10]: 43.43% | Mass of tumor [3, 11]: 0.37 ± 0.18 g | Tumor Inhibition rate (%) [3, 11]: 52.12% | Mass of tumor [3, 12]: 0.43 ± 0.17 g | Tumor Inhibition rate (%) [3, 12]: 44.58% | Mass of tumor [3, 13]: 0.34 ± 0.05 g | Tumor Inhibition rate (%) [3, 13]: 56.67% | Weight (g) Final [4, 5]: 27.18 ± 3.62 g | Weight (g) Initial [4, 5]: 18.88 ± 0.56 g | Weight (g) Final [4, 6]: 25.63 ± 1.06 g | Weight (g) Initial [4, 6]: 21.35 ± 0.34 g | Weight (g) Final [4, 7]: 28.50 ± 2.83 g | Weight (g) Initial [4, 7]: 24.58 ± 0.39 g | Weight (g) Final [4, 8]: 24.30 ± 1.38 g | Weight (g) Initial [4, 8]: 18.98 ± 0.51 g | Weight (g) Final [4, 9]: 25.78 ± 1.15 g | Weight (g) Initial [4, 9]: 20.10 ± 0.22 g | Weight (g) Final [4, 10]: 26.68 ± 1.42 g | Weight (g) Initial [4, 10]: 22.28 ± 0.43 g | Weight (g) Final [4, 11]: 26.33 ± 2.76 g | Weight (g) Initial [4, 11]: 23.50 ± 0.37 g | Weight (g) Final [4, 12]: 25.95 ± 0.94 g | Weight (g) Initial [4, 12]: 20.45 ± 0.76 g | Weight (g) Final [4, 13]: 29.98 ± 1.32 g | Weight (g) Initial [4, 13]: 26.98 ± 0.75 g | toxic and side effect ([4]; all dosages 0.1-1.0 mg/kg): none of the dosages causes obvious toxic and side effect | animal deaths until dissection ([4]; all groups, until Day 27): none of the animals has died
